The test system of one data set is NCI-H446. Nature of the data set: Antitumor activity against human NCI-H446 cells assessed as inhibition of cell growth by SRB assay. The class given is functional, cell-based.
The next data set concerns ASPC1. Nature of the data set: Antitumor activity against human ASPC1 cells assessed as inhibition of cell growth by SRB assay. The class given is functional, cell-based.
A short description of data set [1]: Antitumor activity against human Cisplatin/etoposide-resistant NCI-H446/EP cells assessed as inhibition of cell growth by SRB assay. It is filed as functional, cell-based.
Data set [2] relates to Staphylococcus aureus. Put plainly: Antimicrobial activity against methicillin-resistant Staphylococcus aureus assessed as inhibition of microbial growth incubated for 24 hrs by microdilution method. The class given is functional, organism-based.
For another data set, the system named is MDA-MB-231. Nature of the data set: Antitumor activity against human MDA-MB-231 cells assessed as inhibition of cell growth by SRB assay. The class given is functional, cell-based.
The test system of a further data set is Bacillus cereus. Nature of the data set: Antimicrobial activity against Bacillus cereus ATCC 4342 assessed as inhibition of microbial growth incubated for 24 hrs by microdilution method. The class given is functional, organism-based.
Data set [3] concerns Staphylococcus aureus. Nature of the data set: Antimicrobial activity against Staphylococcus aureus ATCC 29213 assessed as inhibition of microbial growth incubated for 24 hrs by microdilution method. It is filed as functional, organism-based.
The subject of the next data set is K562. Nature of the data set: Antitumor activity against human K562 cells assessed as inhibition cell growth by MTT assay. The class given is functional, cell-based.
The nature of data set [4]: Antitumor activity against human L02 cells assessed as inhibition of cell growth by SRB assay. The class given is toxicity, cell-based.

Counter-ions that a name gives are not always drawn.

For `CC1=CC(=O)c2c(O)cccc2[C@]12Oc1cc(O)cc(C)c1C2=O`, the IC50 (with NCI-H446; in the data set on ASPC1; in data set [1]; in the data set on MDA-MB-231; in the data set with K562; in data set [4]) was above 50 µM each time. Further, the Activity entry in the data set on Staphylococcus aureus [2], with Bacillus cereus and in the data set with Staphylococcus aureus [3] was “Weak_effect” throughout.
`Cc1cc(=O)c2c3c(c(O)cc2o1)[C@](O)(Cc1cc(=O)cc(O)o1)C[C@@H](O)C3`: the half-inhibitory concentration (IC50) (with NCI-H446; in the data set with ASPC1; in [1]; in the data set with MDA-MB-231; with K562; in data set [4]) was above 50 µM throughout.
For the molecule `Cc1cc(=O)c2c3c(c(O)cc2o1)/C(=C/c1cc(=O)cc(O)o1)C[C@@H](O)C3`, the IC50 (in the data set with NCI-H446; in the data set with ASPC1; in [1]; in the data set on MDA-MB-231; in the data set with K562; in [4]) was above 50 µM each time.
As for `Cc1cc(=O)c2c(C/C=C/[C@@H](O)Cc3cc(O)cc(=O)o3)cc(O)cc2o1`, the IC50 was above 50 µM in the data set with NCI-H446; below 50 µM in the data set on ASPC1; above 50 µM in data set [1]; above 50 µM with MDA-MB-231; above 50 µM with K562; above 50 µM in data set [4].
Take `COc1cccc2c1C(=O)c1c(O)c3c(c(O)c1C2=O)C[C@@](O)(C(=O)CO)C[C@@H]3O[C@H]1C[C@H](N)[C@H](O)[C@H](C)O1` [DOXORUBICIN HYDROCHLORIDE]: the concentration for half-maximal inhibition (IC50) in the data set with NCI-H446 is 0.8 µM; with ASPC1, 5.91 µM; in data set [1], 11.2 µM; in data set [4], 0.33 µM.
With `Cc1cc(=O)c2c(CCCC(=O)Cc3cc(O)cc(=O)o3)cc(O)cc2o1`, the IC50 was below 50 µM in the data set on NCI-H446; above 50 µM in the data set with ASPC1; above 50 µM in data set [1]; above 50 µM in the data set with MDA-MB-231; above 50 µM in the data set with K562; below 50 µM in [4]. Also, the Activity result in the data set with Staphylococcus aureus [2], in the data set on Bacillus cereus and in the data set with Staphylococcus aureus [3] was “Weak_effect” in each case.
`CC1=CC(=O)c2c(O)cccc2[C@@]12Oc1cc(O)cc(C)c1C2=O`: the 50% inhibitory concentration (IC50) with NCI-H446 is 2.26 µM; with ASPC1 it was above 50 µM; in data set [1], below 50 µM; with MDA-MB-231 it was above 50 µM; in the data set with K562, above 50 µM; in [4], above 50 µM. For the same molecule, the Activity entry in the data set with Staphylococcus aureus [2], with Bacillus cereus and with Staphylococcus aureus [3] was “Weak_effect” each time.

The values are drawn from ChEMBL document CHEMBL6103627, “(±)-Feionemycin A and Chromonemycins A-D, Rearranged Aromatic Polyketides Uncovered by Type II Polyketide Gene Cluster Expression” (J Nat Prod, 2025).
